Earlier results, collected in patent publication US20080275000A1, “COMPOSITIONS FOR REDUCING, AMELIORATING, TREATING, OR PREVENTING CONDITION OF DRY EYE AND METHODS OF MAKING AND USING SAME” (priority 2007, published 2008).
Where two headings read alike, the source gives them in different places.

Key:
[1] = buffering agent pH range
[2] = Table 1, only or first printed value

Row | SMILES | pKa [2] | pKa (Table 1, second printed value) | other results
1 | O=C(O)[C@@H]1CCC[C@H]1C(=O)O (relative stereo) [1,2-trans-cyclopentanedicarboxylic acid] | 3.89 | 5.91 | –
2 | O=C(O)[C@H]1CCC[C@H](C(=O)O)C1 (relative stereo) [1,3-trans-cyclohexanedicarboxylic acid] | 4.18 | 5.93 | –
3 | O=C(O)[C@H]1CC[C@H](C(=O)O)C1 (relative stereo) [1,3-trans-cyclopentanedicarboxylic acid] | 4.40 | 5.45 | –
4 | O=C(O)[C@H]1CC[C@@H](C(=O)O)CC1 [1,4-cis-cyclohexanedicarboxylic acid] | 4.44 | 5.79 | –
5 | COCCN(CC(=O)O)CC(=O)O [2-methoxyethyliminodiacetic acid] | – | – | pKa (first listed value): 2.2; pKa (second listed value): 8.96
6 | CSCCN(CC(=O)O)CC(=O)O [2-methylthioethyliminodiacetic acid] | – | – | pKa (first listed value): 2.1; pKa (second listed value): 8.91
7 | CC1(C(=O)O)CCC(C(=O)O)C1(C)C (stereo not drawn) [(+) camphoric acid] | 4.72 | – | –
8 | O=S(=O)(O)CCN(CCO)CCO [BES, N,N-bis{2-hydroxyethyl}2-aminoethanesulfonic acid] | – | – | pH in the range of [1]: 6.4-7.8
9 | O=C(O)CN(CCN(CC(=O)O)CC(=O)O)CCN(CC(=O)O)CC(=O)O [DTPA, diethylenetriaminepentaacetic acid] | – | – | two pKa values (bound stated for two pKa values): greater than or equal to 6.30
10 | O=S(=O)(O)CCN1CCN(CCO)CC1 [HEPES, N-{2-hydroxyethyl}peperazine-N′-{2-ethanesulfonic acid}] | – | – | pH in the range of [1]: 6.8-8.2
11 | O=S(=O)(O)CCCN1CCOCC1 [MOPS, 3-{N-morpholino}propanesulfonic acid] | – | – | pH in the range of [1]: 6.5-7.9
12 | O=C(O)CN(CCS(=O)(=O)O)CC(=O)O [N-2-sulfoethyliminodiacetic acid] | – | – | pKa (first listed value): 1.92; pKa (second listed value): 2.28; pKa (third listed value): 8.16
13 | CC(=O)C1C(=O)C=C(C)OC1=O (centres unmarked) [dehydroacetic acid] | 5.40 | – | –
14 | O=C(O)CNCC(=O)O [iminodiacetic acid] | – | – | pKa (first listed value): 2.98; pKa (second listed value): 9.89
15 | CCCC(=O)OO [n-peroxybutyric acid] | 8.2 | – | –
16 | O=C(O)c1cccnc1 [nicotinic acid] | – | – | pKa (first listed value): 10.09; pKa (fourth listed value): 2.86; pKa (second listed value): 9.14; pKa (third listed value): 6.92
17 | CCCCOc1ccc(C(=O)O)cc1 [p-n-butoxybenzoic acid] | 4.53 | – | –
18 | CCCOc1ccc(C(=O)O)cc1 [p-n-propoxybenzoic acid] | 4.46 | – | –
19 | CC(=O)OO [peroxyacetic acid] | 8.2 | – | –
20 | O=COO [peroxyformic acid] | 7.1 | – | –
21 | CCCCC(=O)O [valeric acid] | 4.85 | – | –

The next lines start with results.

Row | pKa [2] | pKa (Table 1, second printed value) | SMILES | other results
22 | 3.82 | 6.70 | O=C(O)CC1(CC(=O)O)CCCC1 [1,1-cyclopentanediacetic acid] | –
23 | – | 5.41 | O=C(O)CCCCCCCC(=O)O [azelaic acid] | –
24 | – | 5.42 | O=C(O)CCCCCC(=O)O [pimelic acid] | –
25 | 4.52 | 5.4 | O=C(O)CCCCCCC(=O)O [suberic acid] | –
26 | 4.25 | 6.22 | CC(CC(=O)O)CC(=O)O [β-methylglutaric acid] | –
